Assay results published in patent US11173151B2, “Substituted triazole derivatives and uses thereof” (BAYER AKTIENGESELLSCHAFT, priority 2017, dated 2021).

Experiments:
[1] = target: T1, human V1a receptor (Homo sapiens, UniProt P37288); experiment: Cellular in vitro assay for determining vasopressin receptor activity, V1a receptor cell line (CHO, aequorin luminescence); type: cell-based; conditions: for IC50: CHO cell line transfected with human V1a receptor, [Arg]-vasopressin at EC50 concentration, read-out: IC50 hV1a; for ratio IC50 hV2/hV1a: selectivity ratio IC50 hV2 / IC50 hV1a
T1 construct: expressed in transfected cells; host or cells: CHO K1 (ATCC), also stably transfected with a modified aequorin
T1 sequence (P37288 whole entry): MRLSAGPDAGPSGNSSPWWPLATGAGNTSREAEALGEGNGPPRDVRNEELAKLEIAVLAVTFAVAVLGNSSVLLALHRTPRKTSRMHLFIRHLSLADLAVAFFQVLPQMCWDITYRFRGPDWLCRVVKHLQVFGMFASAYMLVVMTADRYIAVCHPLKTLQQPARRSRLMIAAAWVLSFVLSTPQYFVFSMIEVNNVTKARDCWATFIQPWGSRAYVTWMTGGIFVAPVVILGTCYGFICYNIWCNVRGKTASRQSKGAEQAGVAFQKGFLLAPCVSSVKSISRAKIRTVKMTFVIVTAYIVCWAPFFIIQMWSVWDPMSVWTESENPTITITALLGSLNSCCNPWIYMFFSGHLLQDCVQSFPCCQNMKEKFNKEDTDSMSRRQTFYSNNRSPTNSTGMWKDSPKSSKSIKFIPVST
Protocol: (§1) B-1. Cellular In Vitro Assay for Determining Vasopressin Receptor Activity
(§2) The identification of agonists and antagonists of the V1a and V2 vasopressin receptors from humans, rats and dogs as well as the quantification of the activity of the compounds of the invention is carried out using recombinant cell lines. These cell lines originally derive from a hamster's ovary epithelial cell (Chinese Hamster Ovary, CHO K1, ATCC: American Type Culture Collection, Manassas, Va. 20108, USA). The test cell lines constitutively express the human, rat or dog V1a or V2 receptors. In case of the Gαq-coupled V1a receptors, cells are also stably transfected with a modified form of the calcium-sensitive photoproteins aequorin (human and rat V1a) or obelin (dog V1a), which, after reconstitution with the cofactor coelenterazine, emit light when there are increases in free calcium concentrations [Rizzuto R, Simpson A W, Brini M, Pozzan T, Nature 358, 325-327 (1992); Illarionov B A, Bondar V S, Illarionova V A, Vysotski E S, Gene 153 (2), 273-274 (1995)]. The resulting vasopressin receptor cells react to stimulation of the recombinantly expressed V1a receptors by intracellular release of calcium ions, which can be quantified by the resulting photoprotein luminescence. The Gs-coupled V2 receptors are stably transfected into cell lines expressing the gene for firefly luciferase under control of a CRE-responsible promoter. Activation of V2 receptors induces the activation of the CRE-responsive promoter via cAMP increase, thereby inducing the expression of firefly luciferase. The light emitted by photoproteins of V1a cell lines as well as the light emitted by firefly luciferase of V2 cell lines corresponds to the activation or inhibition of the respective vasopressin receptor. The bioluminescence of the cell lines is detected using a suitable luminometer [Milligan G, Marshall F, Rees S, Trends in Pharmacological Sciences 17, 235-237 (1996)].
Vasopressin V1a Receptor Cell Lines:
On the day before the assay, the cells are plated out in culture medium (DMEM/F12, 2% FCS, 2 mM glutamine, 10 mM HEPES, 5 μg/ml coelenterazine) in 384-well microtiter plates and kept in a cell incubator (96% humidity, 5% v/v CO2, 37° C.). On the day of the assay, test compounds in various concentrations are placed for 10 minutes in the wells of the microtiter plate before the agonist [Arg]-vasopressin at EC50 concentration is added. The resulting light signal is measured immediately in a luminometer.
(§3) Table 1A below lists individual IC50 values for the compounds of the invention (including racemic mixtures as well as separated enantiomers) that were obtained from cell lines transfected with the human V1a or V2 receptor: […]

[2] = target: T2, human V2 receptor (Homo sapiens, UniProt P30518); experiment: Cellular in vitro assay for determining vasopressin receptor activity, V2 receptor cell line (CHO, CRE-luciferase); type: cell-based; conditions: CHO cell line transfected with human V2 receptor; [Arg8]-vasopressin at EC50 concentration, 3 hours; read-out: IC50 hV2
T2 construct: expressed in transfected cells; host or cells: CHO K1 (ATCC) expressing firefly luciferase under a CRE-responsive promoter
T2 sequence (P30518 whole entry): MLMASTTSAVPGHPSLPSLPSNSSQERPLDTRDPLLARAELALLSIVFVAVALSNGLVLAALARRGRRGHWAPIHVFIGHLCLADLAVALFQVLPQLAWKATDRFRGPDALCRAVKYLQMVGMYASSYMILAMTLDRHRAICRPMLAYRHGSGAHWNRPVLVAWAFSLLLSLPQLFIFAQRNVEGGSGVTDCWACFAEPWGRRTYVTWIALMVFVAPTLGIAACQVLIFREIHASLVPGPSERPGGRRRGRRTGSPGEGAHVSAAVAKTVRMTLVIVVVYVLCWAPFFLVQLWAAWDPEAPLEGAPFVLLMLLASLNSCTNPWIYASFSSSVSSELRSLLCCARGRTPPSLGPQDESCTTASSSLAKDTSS
Protocol: as §1, §2
Vasopressin V2 Receptor Cell Lines:
On the day before the assay, the cells are plated out in culture medium (DMEM/F12, 2% FCS, 2 mM glutamine, 10 mM HEPES) in 384-well microtiter plates and kept in a cell incubator (96% humidity, 5% v/v CO2, 37° C.). On the day of the assay, test compounds in various concentrations and the agonist [Arg^8]-vasopressin at EC50 concentration are added together to the wells, and plates are incubated for 3 hours in a cell incubator. Upon addition of the cell lysis reagent Triton™ and the substrate luciferin, luminescence of firefly luciferase is measured in a luminometer.
as §3

Row | SMILES | IC50 [1] [nM] | ratio IC50 hV2/hV1a [1] | IC50 [2] [nM]
1 | O=C1CCC(CNc2ccncc2-n2cnc(Cn3nc(-c4ccc(Cl)cc4)n(C[C@H](O)C(F)(F)F)c3=O)n2)N1 (mixture of isomers) [Example 7, 5-(4-Chlorophenyl)-2-({1-[4-({[5-oxopyrrolidin-2-yl]methyl}amino)pyridin-3-yl]-1H-1,2,4-triazol-3-yl}methyl)-4-[(2S)-3,3,3-trifluoro-2-hydroxypropyl]-2,4-dihydro-3H-1,2,4-triazol-3-one] | 1750 | 2.2 | 3850
2 | CC1(O)CCN(c2ccncc2-n2cnc(Cn3nc(-c4ccc(Cl)cc4)n(C[C@H](O)C(F)(F)F)c3=O)n2)C1 (mixture of isomers) [Example 13, 5-(4-Chlorophenyl)-2-[(1-{4-[3-hydroxy-3-methylpyrrolidin-1-yl]pyridin-3-yl}-1H-1,2,4-triazol-3-yl)methyl]-4-[(2S)-3,3,3-trifluoro-2-hydroxypropyl]-2,4-dihydro-3H-1,2,4-triazol-3-one] | 575 | 0.2 | 90.6
3 | O=C(Nc1ncccc1-n1cnc(Cn2nc(-c3ccc(Cl)cc3)n(C[C@H](O)C(F)(F)F)c2=O)n1)C1CCS(=O)(=O)C1 (mixture of isomers) [Example 82, N-{3-[3-({3-(4-Chlorophenyl)-5-oxo-4-[(2S)-3,3,3-trifluoro-2-hydroxypropyl]-4,5-dihydro-1H-1,2,4-triazol-1-yl}methyl)-1H-1,2,4-triazol-1-yl]pyridin-2-yl}tetrahydrothiophene-3-carboxamide 1,1-dioxide] | 33 | 10.2 | 335
4 | CC1(O)CCN(C(=O)c2ccccc2-n2cnc(Cn3nc(-c4ccc(Cl)cc4)n(C[C@H](O)C(F)(F)F)c3=O)n2)C1 (mixture of isomers) [Example 183, 5-(4-Chlorophenyl)-2-{[1-(2-{[3-hydroxy-3-methylpyrrolidin-1-yl]carbonyl}phenyl)-1H-1,2,4-triazol-3-yl]methyl}-4-[(2S)-3,3,3-trifluoro-2-hydroxypropyl]-2,4-dihydro-3H-1,2,4-triazol-3-one] | 88 | 39.8 | 3500
5 | O=C(c1ncccc1-n1cnc(Cn2nc(-c3ccc(Cl)cc3)n(C[C@@H](O)C(F)(F)F)c2=O)n1)N1CCNC(C(F)(F)F)C1 (mixture of isomers) [Example 476, 5-(4-Chlorophenyl)-4-[(2R)-3,3,3-trifluoro-2-hydroxypropyl]-2-{[1-(2-{[3-(trifluoromethyl)piperazin-1-yl]carbonyl}pyridin-3-yl)-1H-1,2,4-triazol-3-yl]methyl}-2,4-dihydro-3H-1,2,4-triazol-3-one] | 750 | 133.3 | 
6 | O=C(N[C@H]1C[C@@H]1F)c1ncccc1-n1nc(Cn2nc(-c3ccc(Cl)cc3)n(C[C@@H](O)C(F)(F)F)c2=O)nc1N1CCS(=O)(=O)CC1 (racemic) [Example 487, 3-[3-({3-(4-Chlorophenyl)-5-oxo-4-[(2R)-3,3,3-trifluoro-2-hydroxypropyl]-4,5-dihydro-1H-1,2,4-triazol-1-yl}methyl)-5-(1,1-dioxidothiomorpholin-4-yl)-1H-1,2,4-triazol-1-yl]-N-[2-fluorocyclopropyl]pyridine-2-carboxamide] | 5300 | 18.9 | 
7 | O=C1CN(C(=O)c2ncccc2-n2cnc(Cn3nc(-c4ccc(Cl)cc4)n(C[C@@H](O)C(F)(F)F)c3=O)n2)CCN1 [Example 469, 4-({3-[3-({3-(4-Chlorophenyl)-5-oxo-4-[(2R)-3,3,3-trifluoro-2-hydroxypropyl]-4,5-dihydro-1H-1,2,4-triazol-1-yl}methyl)-1H-1,2,4-triazol-1-yl]pyridin-2-yl}carbonyl)piperazin-2-one] | 560 | 178.6 | 

The next molecules have a lower IC50 [1] than those just listed; values first:

Row | IC50 [1] [nM] | ratio IC50 hV2/hV1a [1] | IC50 [2] [nM] | SMILES
8 | 16.5 | 22.1 | 365 | O=C(Nc1ccncc1-n1cnc(Cn2nc(-c3ccc(Cl)cc3)n(C[C@H](O)C(F)(F)F)c2=O)n1)C1CC1(F)F (mixture of isomers) [Example 29, N-{3-[3-({3-(4-Chlorophenyl)-5-oxo-4-[(2S)-3,3,3-trifluoro-2-hydroxypropyl]-4,5-dihydro-1H-1,2,4-triazol-1-yl}methyl)-1H-1,2,4-triazol-1-yl]pyridin-4-yl}-2,2-difluorocyclopropanecarboxamide]
9 | 3.5 | 64.4 | 225 | O=C(Nc1cccnc1-n1cnc(Cn2nc(-c3ccc(Cl)cc3)n(C[C@H](O)C(F)(F)F)c2=O)n1)C1CC1(F)F (mixture of isomers) [Example 41, N-{2-[3-({3-(4-Chlorophenyl)-5-oxo-4-[(2S)-3,3,3-trifluoro-2-hydroxypropyl]-4,5-dihydro-1H-1,2,4-triazol-1-yl}methyl)-1H-1,2,4-triazol-1-yl]pyridin-3-yl}-2,2-difluorocyclopropanecarboxamide]
10 | 20.5 | 213.0 | 4370 | O=C(Nc1cccnc1-n1cnc(Cn2nc(-c3ccc(Cl)cc3)n(C[C@H](O)C(F)(F)F)c2=O)n1)C1CCS(=O)(=O)C1 (mixture of isomers) [Example 50, N-{2-[3-({3-(4-Chlorophenyl)-5-oxo-4-[(2S)-3,3,3-trifluoro-2-hydroxypropyl]-4,5-dihydro-1H-1,2,4-triazol-1-yl}methyl)-1H-1,2,4-triazol-1-yl]pyridin-3-yl}tetrahydrothiophene-3-carboxamide 1,1-dioxide]
11 | 5.13 | 185.4 | 950 | O=C(Nc1cccnc1-n1cnc(Cn2nc(-c3ccc(Cl)cc3)n(CC(O)C(F)(F)F)c2=O)n1)C1CC1F (mixture of isomers) [Example 59, N-{2-[3-({3-(4-Chlorophenyl)-5-oxo-4-[(2S)-3,3,3-trifluoro-2-hydroxypropyl]-4,5-dihydro-1H-1,2,4-triazol-1-yl}methyl)-1H-1,2,4-triazol-1-yl]pyridin-3-yl}-2-fluorocyclopropanecarboxamide]
12 | 6.6 | 197.0 | 1300 | O=C(Nc1ncccc1-n1cnc(Cn2nc(-c3ccc(Cl)cc3)n(C[C@H](O)C(F)(F)F)c2=O)n1)C1CC1(F)F (mixture of isomers) [Example 75, N-{3-[3-({3-(4-Chlorophenyl)-5-oxo-4-[(2S)-3,3,3-trifluoro-2-hydroxypropyl]-4,5-dihydro-1H-1,2,4-triazol-1-yl}methyl)-1H-1,2,4-triazol-1-yl]pyridin-2-yl}-2,2-difluorocyclopropanecarboxamide]
13 | 19.5 | 192.3 | 3750 | O=C1CCC(NC(=O)c2ccccc2-n2cnc(Cn3nc(-c4ccc(Cl)cc4)n(C[C@H](O)C(F)(F)F)c3=O)n2)CN1 (mixture of isomers) [Example 191]
14 | 22 | 38.9 | 855 | NC(CNC(=O)c1ccccc1-n1cnc(Cn2nc(-c3ccc(Cl)cc3)n(C[C@H](O)C(F)(F)F)c2=O)n1)C(F)(F)C(F)F (mixture of isomers) [Example 196, N-[2-Amino-3,3,4,4-tetrafluorobutyl]-2-[3-({3-(4-chlorophenyl)-5-oxo-4-[(2S)-3,3,3-trifluoro-2-hydroxypropyl]-4,5-dihydro-1H-1,2,4-triazol-1-yl}methyl)-1H-1,2,4-triazol-1-yl]benzamide]
15 | 4.3 | 0.9 | 4.05 | CC1(CNC(=O)c2ccccc2-n2cnc(Cn3nc(-c4ccc(Cl)cc4)n(C[C@H](O)C(F)(F)F)c3=O)n2)CCCO1 (mixture of isomers) [Example 202, 2-[3-({3-(4-Chlorophenyl)-5-oxo-4-[(2S)-3,3,3-trifluoro-2-hydroxypropyl]-4,5-dihydro-1H-1,2,4-triazol-1-yl}methyl)-1H-1,2,4-triazol-1-yl]-N-{[2-methyltetrahydrofuran-2-yl]methyl}benzamide]
